The record followed here is patent publication US20100273694A1, “SURFACTANT COMPOSITION METHOD FOR PRODUCTION THEREOF AND COSMETIC COMPRISING SAID COMPOSITION” (EIFFAGE TRAVAUX PUBLICS, priority 2004, published 2010).

This series in a line: Measurement of surface tension and critical micellar concentrations (rising drop tensiometer). Type of series: physicochemical. The following applies: rising drop method; for CMC: critical micellar concentration; for γcmc: surface tension at the CMC. Here is the method:
The tensiometric measurements were carried out with a drop tensiometer operating by the method of the rising drop ([…] tensiometer, I.T. CONCEPT).

As for “9-octadecenyl betaine mesylate [Esters C18:1]”, the CMC is on record as 1.10^−4 M and the γcmc came to 36.6 mN/m.

`CCCCCCCCCCCCOS(=O)(=O)[O-].[Na+]` [SDS (C12), sodium dodecyl sulphate, reference compound] had a CMC of 0.008 M and a γcmc of 30.0 mN/m.

Compound “betainylaminooctadecane mesylate [Amides C18:0]” had a CMC of 0.00014 M and a γcmc of 36.0 mN/m.

The compound “betainylaminooctadecenyl mesylate [Amides C18:1]” registered a CMC of 0.00012 M and a γcmc of 36.2 mN/m.

With “octadecyl betaine mesylate [Esters C18:0]”, the CMC was 8.10^−4 M and the γcmc is reported as 37.2 mN/m.
